Test results reported in patent US20040192638A1, “Method and composition for prolonging the residence time of drugs in the gut” (priority 2001, published 2004).

Experiments:
[1] = Effect of cGMP on drug uptake: atenolol in blood after intraduodenal infusion; assay type: in vivo, rat; settings: atenolol 1 mg/kg intraduodenal; 0.2 ml of 10 mM cGMP 15 minutes prior to and 15 minutes after atenolol; same rats, FIG. 4
Procedure: Thus, a model drug, atenolol, was introduced directly into the lumen of the rat's small intestine, and the concentration of atenolol was measured in the blood over time. The blood values and concentration kinetics of the model drug were compared after infusion into the intestine alone or when infused with cGMP. Atenolol was quantified using conventional liquid chromatography/mass spectrometry methods.
Outbred male rats (Sprague Dawley, Harlan Sprague Dawley, Inc., Indianapolis, Ind.) were housed singly and maintained on a 12-hour light/12-hour dark cycle. All rats used in this bioassay procedure were uninfected with tapeworm. For intestinal infusion, rats (n=2) were lightly sedated, and an indwelling cannula was implanted into the duodenal lumen in each of two rats. […] In brief, the animal preparation involved the following: a cannula was surgically implanted into the duodenal region of each test rat. The cannula extended from the lumen of the duodenum, across the peritoneum, under the skin to the abdominal wall, and finally to an exit from the skin at the nape of the neck. […] During the surgery, both cannulas were filled with sterile saline and plugged with metal pins. Rats were allowed at least five days to recover from implantation surgery before any manipulation occurred. All rats were housed individually after surgery to prevent damage to the cannulas. […]

rat small intestine = assay: SSP myoelectric recording after intragastric (per os) or intraperitoneal cGMP; assay type: in vivo; settings: data not shown
Procedure: For intragastric infusion, rats (n=4) were lightly sedated with Halothane in order to insert a gastric tube per os and infused with 0.3 ml of 10 mM cGMP in saline directly into the lumen of the stomach. Thirty minutes of control myoelectric recording were always performed before infusion of any substance. Five to seven minutes after infusion, the rats were reconnected to the recorder. […] This procedure was repeated with the same rats on a different day with 0.3 ml 100 mM cGMP (equal to 100× the minimal dose required to increase SSP frequency by infusion into the lumen of the small intestine) and on a separate day with 0.3 ml saline as a vehicle control. Post-oral dosing myoelectric recordings were 90 minutes in duration.
Neither cGMP (1.0 ml of 100 mM) injected intraperitoneally nor cGMP (0.3 ml of 10 mM and 100 mM) introduced into the stomach per os initiated the SSP pattern in the small intestine (data not shown).

Compound: Nc1nc2c(ncn2C2OC3COP(=O)(O)OC3C2O)c(=O)[nH]1 (stereo not shown) [cGMP, guanosine cyclic 3′, 5′-hydrogen phosphate]
- amount of atenolol in the blood over the 20-minute period, with cGMP versus atenolol alone [1]: almost doubles
- initiation of SSP pattern in the small intestine (in words) (rat small intestine; 0.3 ml of 10 mM into the stomach per os): lack of intestinal response
- initiation of SSP pattern in the small intestine (in words) (rat small intestine; 0.3 ml of 100 mM into the stomach per os): lack of intestinal response
- initiation of SSP pattern in the small intestine (in words) (rat small intestine; 1.0 ml of 100 mM injected intraperitoneally): lack of intestinal response
